Test: xn = mol fraction of the nth substance listed

C=CC(=O)OC + CCCCCCCCCCCCC
viscosity [mPa·s], 100 kPa
Conditions	x1 = 0.1018	x1 = 0.1995	x1 = 0.3067	x1 = 0.4044	x1 = 0.5002	x1 = 0.6038	x1 = 0.7058	x1 = 0.8043	x1 = 0.9012
303.15 K	1.375	1.235	1.091	0.974	0.868	0.765	0.673	0.593	0.513
308.15 K	1.178	1.058	0.936	0.838	0.752	0.669	0.598	0.538	0.477
313.15 K	1.056	0.953	0.845	0.762	0.689	0.618	0.554	0.498	0.446

CCOC(=O)CC + Clc1ccccc1
viscosity [mPa·s], 101.3 kPa
Conditions	308.15 K	318.15 K
x1 = 0.0485	0.647	0.598
x1 = 0.102	0.636	0.588
x1 = 0.1976	0.616	0.57
x1 = 0.307	0.594	0.55
x1 = 0.3981	0.576	0.534
x1 = 0.4981	0.557	0.517
x1 = 0.6116	0.535	0.498
x1 = 0.7034	0.519	0.483
x1 = 0.7992	0.501	0.467
x1 = 0.9	0.484	0.451
x1 = 0.9478	0.476	0.444

CCCCCC + CO
298.15 K, 101.33 kPa
Conditions	viscosity [mPa·s]
x2 = 0.0532	0.313
x2 = 0.0601	0.313
x2 = 0.138	0.317
x2 = 0.154	0.319
x2 = 0.2491	0.334
x2 = 0.8139	0.49
x2 = 0.8529	0.502
x2 = 0.8644	0.506
x2 = 0.9199	0.525
x2 = 0.9494	0.539
x2 = 0.9771	0.547

CC(C)CO + CN1CCCC1=O
298.15 K, 101 kPa
Conditions	viscosity [mPa·s]
x2 = 0.0577	2.895
x2 = 0.1202	2.548
x2 = 0.1587	2.399
x2 = 0.2004	2.276
x2 = 0.2421	2.18
x2 = 0.3117	2.053
x2 = 0.368	1.982
x2 = 0.4264	1.931
x2 = 0.4568	1.896
x2 = 0.5217	1.854
x2 = 0.5616	1.83
x2 = 0.6113	1.82
x2 = 0.6662	1.796
x2 = 0.711	1.776
x2 = 0.7618	1.752
x2 = 0.8039	1.747
x2 = 0.8557	1.717
x2 = 0.8982	1.704
x2 = 0.9723	1.677

CCCCCOC(C)=O + C=Cc1ccccc1
Conditions	viscosity [mPa·s]
298.15 K, 101 kPa, x2 = 0.103	0.802

CC(C)(C)c1ccccc1 + c1ccccc1
303.15 K, 101.3 kPa
Conditions	viscosity [mPa·s]
x2 = 0.0424	0.9763
x2 = 0.1376	0.9194
x2 = 0.2605	0.8507
x2 = 0.4018	0.7791
x2 = 0.5266	0.725
x2 = 0.682	0.6637
x2 = 0.7952	0.6265
x2 = 0.865	0.6036
x2 = 0.9376	0.5792

CC(C)CO + C1COCCO1
298.15 K, 101 kPa
Conditions	viscosity [mPa·s]
x2 = 0.0416	2.787
x2 = 0.125	2.14
x2 = 0.2354	1.668
x2 = 0.3104	1.489
x2 = 0.4165	1.296
x2 = 0.4739	1.231
x2 = 0.5066	1.206
x2 = 0.5756	1.153
x2 = 0.5788	1.144
x2 = 0.7141	1.107
x2 = 0.7411	1.098
x2 = 0.7859	1.107
x2 = 0.832	1.099
x2 = 0.8845	1.109
x2 = 0.9419	1.131

CCCCCOC(C)=O + CCCCCC
303.15 K, 101.3 kPa
Conditions	viscosity [mPa·s]
x1 = 0.1004	0.303
x1 = 0.2054	0.3329
x1 = 0.298	0.3626
x1 = 0.403	0.4007
x1 = 0.5009	0.443
x1 = 0.6017	0.4937
x1 = 0.6958	0.5456
x1 = 0.8016	0.6101
x1 = 0.8978	0.6752

Cc1ccccc1O + C1CCCCC1
308.15 K, 101 kPa
Conditions	viscosity [mPa·s]
x1 = 0.0821	0.8505
x1 = 0.1618	0.9431
x1 = 0.2824	1.146
x1 = 0.3677	1.341
x1 = 0.4418	1.568
x1 = 0.5033	1.708
x1 = 0.5871	2.049
x1 = 0.7934	3.199
x1 = 0.8996	4.104

CCCCCOC(C)=O + OCc1ccccc1
Conditions	viscosity [mPa·s]
298.15 K, 101 kPa, x1 = 0.5	1.035

CC(C)CO + COC(C)(C)C
298.15 K, 101 kPa
Conditions	viscosity [mPa·s]
x2 = 0.1007	2.39
x2 = 0.2009	1.72
x2 = 0.2996	1.27
x2 = 0.3951	0.987
x2 = 0.502	0.776
x2 = 0.6038	0.637
x2 = 0.7002	0.536
x2 = 0.8022	0.449
x2 = 0.9008	0.385

CC(C)CO + CCC(C)O
Conditions	viscosity [mPa·s]
313.15 K, 101 kPa, x2 = 0.3008	2.005

CC1=CCC2CC1C2(C)C (configuration not stated) + CCCCCC
298.15 K, 101.33 kPa
Conditions	viscosity [mPa·s]
x2 = 0.0422	1.207
x2 = 0.06195	1.165
x2 = 0.1087	1.077
x2 = 0.254	0.842
x2 = 0.3759	0.699
x2 = 0.5049	0.577
x2 = 0.6267	0.487
x2 = 0.7168	0.43
x2 = 0.867	0.355
x2 = 0.9244	0.326
x2 = 0.9625	0.31

C=CC(=O)OC + CCCCCO
viscosity [mPa·s], 101.33 kPa
Conditions	308.15 K	318.15 K
x1 = 0.0469	2.288	1.82
x1 = 0.148	1.725	1.406
x1 = 0.2501	1.327	1.104
x1 = 0.3489	1.053	0.89
x1 = 0.4436	0.86	0.735
x1 = 0.5084	0.758	0.651
x1 = 0.545	0.708	0.61
x1 = 0.6489	0.594	0.514
x1 = 0.7484	0.513	0.445
x1 = 0.8456	0.454	0.392
x1 = 0.9477	0.409	0.35

Cc1ccccc1O + Cc1ccc(O)cc1
viscosity [mPa·s]
Conditions	298.15 K	313.15 K	323.15 K
101 kPa, x1 = 0.1547	13.27	–	–
101 kPa, x1 = 0.2999	12	–	–
101 kPa, x1 = 0.3525	11.63	–	–
101 kPa, x1 = 0.4233	11.03	–	–
101 kPa, x1 = 0.5256	10.3	–	–
101 kPa, x1 = 0.6304	9.612	–	–
101 kPa, x1 = 0.7573	8.854	–	–
101 kPa, x1 = 0.875	8.209	–	–
101.3 kPa, x1 = 0.1	–	6.38	4.318
101.3 kPa, x1 = 0.2	–	6.086	4.147
101.3 kPa, x1 = 0.3	–	5.766	3.929
101.3 kPa, x1 = 0.4	–	5.425	3.727
101.3 kPa, x1 = 0.5	–	5.125	3.555
101.3 kPa, x1 = 0.6	–	4.847	3.401
101.3 kPa, x1 = 0.7	–	4.616	3.235
101.3 kPa, x1 = 0.8	–	4.435	3.112
101.3 kPa, x1 = 0.9	–	4.3	3.047

C=CCC[n+]1ccn(CC)c1.[Br-] + O
viscosity [mPa·s], 101.33 kPa
Conditions	x1 = 0.001149	x1 = 0.001784	x1 = 0.003604	x1 = 0.005391	x1 = 0.007164	x1 = 0.008843
293.15 K	1.038	1.055	1.095	1.132	1.168	1.206
298.15 K	0.922	0.936	0.971	1.003	1.034	1.067
303.15 K	0.825	0.837	0.867	0.895	0.924	0.95
308.15 K	0.743	0.754	0.781	0.806	0.831	0.854
313.15 K	0.674	0.684	0.708	0.73	0.753	0.772

Source: the CheMixHub viscosity set
